Reference: patent publication US12139492B2 (Endotarget Inc., priority 2021, dated 2024)

Experiments:
Type in all cases: cell-based
[1] = tested on: JeKo-1 cells; assay: Antiproliferative effect, MTS cell viability assay, JeKo-1 cells; conditions: Homo sapiens; JeKo-1 mantle cell lymphoma cells; read-out: IC50 (anti-proliferation) JeKO-1 cells
In short: (§1)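 Readout was MTS-derived formazan absorbance (490 nm) reflecting metabolically active cells. Treatment lasted 72 h over a 0–10 μM range (0.001, 0.01, 0.1, 1, 10 μM) in JeKo-1 and Mino B-cell malignancy cells.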

[2] = tested on: Mino cells; assay: Antiproliferative effect, MTS cell viability assay, Mino cells; conditions: Homo sapiens, MINO, Mino mantle cell lymphoma cells; read-out: IC50 (anti-proliferation) Mino cells
In short: as §1

[3] = target: BTK (Homo sapiens, UniProt Q06187); assay: BTK degradation, DC50 and Dmax of Table 1 (cell line not given); parameters: endogenous in cells; conditions: for DC50: concentration giving 50% reduction of BTK expression level
Chain of BTK (Q06187 whole entry): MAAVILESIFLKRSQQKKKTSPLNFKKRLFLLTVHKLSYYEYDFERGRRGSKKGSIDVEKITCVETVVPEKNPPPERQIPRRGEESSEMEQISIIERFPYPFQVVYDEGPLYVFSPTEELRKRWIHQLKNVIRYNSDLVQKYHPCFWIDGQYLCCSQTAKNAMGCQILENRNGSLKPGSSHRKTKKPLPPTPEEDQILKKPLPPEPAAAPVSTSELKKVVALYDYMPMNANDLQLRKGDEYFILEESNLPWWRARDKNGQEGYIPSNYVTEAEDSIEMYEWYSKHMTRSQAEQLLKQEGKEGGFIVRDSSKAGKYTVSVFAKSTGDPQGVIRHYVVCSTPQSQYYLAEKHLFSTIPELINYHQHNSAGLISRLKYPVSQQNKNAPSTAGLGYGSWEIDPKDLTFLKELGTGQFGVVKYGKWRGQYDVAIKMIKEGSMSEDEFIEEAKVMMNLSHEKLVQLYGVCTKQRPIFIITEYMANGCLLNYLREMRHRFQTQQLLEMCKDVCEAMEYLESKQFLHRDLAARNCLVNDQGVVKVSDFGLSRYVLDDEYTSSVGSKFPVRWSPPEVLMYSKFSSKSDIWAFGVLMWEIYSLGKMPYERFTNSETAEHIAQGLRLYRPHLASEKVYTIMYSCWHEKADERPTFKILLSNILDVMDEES

Row | Dmax [3] | DC50 [3] | SMILES | IC50 [1] | IC50 [2]
1 | > 75% | 10 to 50 nM | Nc1ncnc2c1c(-c1ccc(Oc3ccccc3)cc1)nn2[C@@H]1CCCN(C2CCN(CCN3CCN(c4ccc5c(c4)C(=O)N(C4CCC(=O)NC4=O)C5=O)CC3)CC2)C1 (stereo partly drawn) [Compound 147, 5-(4-(2-((R)-3-(4-amino-3-(4-phenoxyphenyl)-1H-pyrazolo[3,4-d]pyrimidin-1-yl)-[1,4′-bipiperidin]-1′-yl)ethyl)piperazin-1-yl)-2-(2,6-dioxopiperidin-3-yl)isoindoline-1,3-dione] | > 10000 nM | > 10000 nM
2 | > 75% | > 50 nM | Nc1ncnc2c1c(-c1ccc(Oc3ccccc3)cc1)nn2[C@@H]1CCCN(CC2CCN(C(=O)N3CCN(c4ccc5c(c4)CN(C4CCC(=O)NC4=O)C5=O)CC3)CC2)C1 (stereo partly drawn) [Compound 26, 3-(5-(4-(4-(((R)-3-(4-amino-3-(4-phenoxyphenyl)-1H-pyrazolo[3,4-d]pyrimidin-1-yl)piperidin-1-yl)methyl)piperidine-1-carbonyl)piperazin-1-yl)-1-oxoisoindolin-2-yl)piperidine-2,6-dione] | 1000 to 10000 nM | 1000 to 10000 nM
3 | > 90% | 10 to 50 nM | Nc1ncnc2c1c(-c1ccc(Oc3ccccc3)cc1)nn2[C@@H]1CCCN(C2CCN(C(=O)N3CCC(CN4CCC(c5ccc6c(c5)C(=O)N(C5CCC(=O)NC5=O)C6=O)CC4)CC3)CC2)C1 (stereo partly drawn) [Compound 173, 5-(1-((1-((R)-3-(4-amino-3-(4-phenoxyphenyl)-1H-pyrazolo[3,4-d]pyrimidin-1-yl)-[1,4′-bipiperidine]-1′-carbonyl)piperidin-4-yl)methyl)piperidin-4-yl)-2-(2,6-dioxopiperidin-3-yl)isoindoline-1,3-dione] | < 1000 nM | 1000 to 10000 nM
4 | > 75% | > 50 nM | Nc1ncnc2c1c(-c1ccc(Oc3ccccc3)cc1)nn2[C@@H]1CCCN(C2CCN(C(=O)N3CCN(CCCN4CCN(c5ccc6c(c5)C(=O)N(C5CCC(=O)NC5=O)C6=O)CC4)CC3)CC2)C1 (stereo partly drawn) [Compound 187, 5-(4-(3-(4-((R)-3-(4-amino-3-(4-phenoxyphenyl)-1H-pyrazolo[3,4-d]pyrimidin-1-yl)-[1,4′-bipiperidine]-1′-carbonyl)piperazin-1-yl)propyl)piperazin-1-yl)-2-(2,6-dioxopiperidin-3-yl)isoindoline-1,3-dione] | 1000 to 10000 nM | 1000 to 10000 nM
5 | > 75% | 10 to 50 nM | Nc1ncnc2c1c(-c1ccc(Oc3ccccc3)cc1)nn2C1CCN(C(=O)N2CCC(N3CCN(c4ccc5c(c4)CN(C4CCC(=O)NC4=O)C5=O)CC3)CC2)CC1 (stereo not shown) [Compound 82, 3-(5-(4-(1-(4-(4-amino-3-(4-phenoxyphenyl)-1H-pyrazolo(3,4-d)pyrimidin-1-yl)piperidine-1-carbonyl)piperidin-4-yl)piperazin-1-yl)-1-oxoisoindolin-2-yl)piperidine-2,6-dione] | > 10000 nM | > 10000 nM
6 | > 90% | < 10 nM | Nc1ncnc2c1c(-c1ccc(Oc3ccccc3)cc1)nn2[C@@H]1CCCN(C(=O)N2CCC(CCC3CCN(c4ccc5c(c4)CN(C4CCC(=O)NC4=O)C5=O)CC3)CC2)C1 (stereo partly drawn) [Compound 72, 3-(5-(4-(2-(1-((R)-3-(4-amino-3-(4-phenoxyphenyl)-1H-pyrazolo[3,4-d]pyrimidin-1-yl)piperidine-1-carbonyl)piperidin-4-yl)ethyl)piperidin-1-yl)-1-oxoisoindolin-2-yl)piperidine-2,6-dione] | 1000 to 10000 nM | 1000 to 10000 nM
7 | > 75% | > 50 nM | Nc1ncnc2c1c(-c1ccc(Oc3ccccc3)cc1)nn2[C@@H]1CCCN(C2CCN(CCCN3CCN(c4ccc5c(c4)C(=O)N(C4CCC(=O)NC4=O)C5=O)CC3)CC2)C1 (stereo partly drawn) [Compound 151, 5-(4-(3-((R)-3-(4-amino-3-(4-phenoxyphenyl)-1H-pyrazolo[3,4-d]pyrimidin-1-yl)-[1,4′-bipiperidin]-1′-yl)propyl)piperazin-1-yl)-2-(2,6-dioxopiperidin-3-yl)isoindoline-1,3-dione] | > 10000 nM | > 10000 nM
8 | > 90% | 10 to 50 nM | Nc1ncnc2c1c(-c1ccc(Oc3ccccc3)cc1)nn2[C@@H]1CCCN(C2CCN(C(=O)N3CCC(CN4CCN(c5ccc6c(c5)CN(C5CCC(=O)NC5=O)C6=O)CC4)CC3)CC2)C1 (stereo partly drawn) [Compound 170, 3-(5-(4-((1-((R)-3-(4-amino-3-(4-phenoxyphenyl)-1H-pyrazolo(3,4-d)pyrimidin-1-yl)-(1,4′-bipiperidine)-1′-carbonyl)piperidin-4-yl)methyl)piperazin-1-yl)-1-oxoisoindolin-2-yl)piperidine-2,6-dione] | 1000 to 10000 nM | 1000 to 10000 nM
9 | > 75% | > 50 nM | Nc1ncnc2c1c(-c1ccc(Oc3ccccc3)cc1)nn2[C@@H]1CCCN(C(=O)N2CCC(CCCN3CCN(c4ccc5c(c4)C(=O)N(C4CCC(=O)NC4=O)C5=O)CC3)CC2)C1 (stereo partly drawn) [Compound 105, 5-(4-(3-(1-((R)-3-(4-amino-3-(4-phenoxyphenyl)-1H-pyrazolo[3,4-d]pyrimidin-1-yl)piperidine-1-carbonyl)piperidin-4-yl)propyl)piperazin-1-yl)-2-(2,6-dioxopiperidin-3-yl)isoindoline-1,3-dione] | > 10000 nM | > 10000 nM
10 | > 90% | 10 to 50 nM | Nc1ncnc2c1c(-c1ccc(Oc3ccccc3)cc1)nn2C1CCN(C(=O)N2CCC(CCN3CCC(c4ccc5c(c4)CN(C4CCC(=O)NC4=O)C5=O)CC3)CC2)CC1 (stereo not shown) [Compound 104, 3-(5-(1-(2-(1-(4-(4-amino-3-(4-phenoxyphenyl)-1H-pyrazolo[3,4-d]pyrimidin-1-yl)piperidine-1-carbonyl)piperidin-4-yl)ethyl)piperidin-4-yl)-1-oxoisoindolin-2-yl)piperidine-2,6-dione] | 1000 to 10000 nM | 1000 to 10000 nM
11 | > 90% | 10 to 50 nM | Nc1ncnc2c1c(-c1ccc(Oc3ccccc3)cc1)nn2[C@@H]1CCCN(C2CCN(C(=O)N3CCC(CCN4CCC(c5ccc6c(c5)CN(C5CCC(=O)NC5=O)C6=O)CC4)CC3)CC2)C1 (stereo partly drawn) [Compound 184, 3-(5-(1-(2-(1-((R)-3-(4-amino-3-(4-phenoxyphenyl)-1H-pyrazolo[3,4-d]pyrimidin-1-yl)-[1,4′-bipiperidine]-1′-carbonyl)piperidin-4-yl)ethyl)piperidin-4-yl)-1-oxoisoindolin-2-yl)piperidine-2,6-dione] | 1000 to 10000 nM | 1000 to 10000 nM
12 | > 75% | > 50 nM | Nc1ncnc2c1c(-c1ccc(Oc3ccccc3)cc1)nn2C1CCN(C(=O)N2CCN(CCCN3CCN(c4ccc5c(c4)CN(C4CCC(=O)NC4=O)C5=O)CC3)CC2)CC1 (stereo not shown) [Compound 120, 3-(5-(4-(3-(4-(4-(4-amino-3-(4-phenoxyphenyl)-1H-pyrazolo[3,4-d]pyrimidin-1-yl)piperidine-1-carbonyl)piperazin-1-yl)propyl)piperazin-1-yl)-1-oxoisoindolin-2-yl)piperidine-2,6-dione] | > 10000 nM | > 10000 nM
13 | > 75% | > 50 nM | Nc1ncnc2c1c(-c1ccc(Oc3ccccc3)cc1)nn2C1CCN(C(=O)N2CCC(CCCN3CCN(c4ccc5c(c4)C(=O)N(C4CCC(=O)NC4=O)C5=O)CC3)CC2)CC1 (stereo not shown) [Compound 117, 5-(4-(3-(1-(4-(4-amino-3-(4-phenoxyphenyl)-1H-pyrazolo[3,4-d]pyrimidin-1-yl)piperidine-1-carbonyl)-piperidin-4-yl)propyl)piperazin-1-yl)-2-(2,6-dioxopiperidin-3-yl)isoindoline-1,3-dione] | 1000 to 10000 nM | 1000 to 10000 nM
